Series [1] can be described thus: Solubility in dioxane (Co), absorption spectrum. Type of series: physicochemical. On the procedure:
(§1) 10 mg of the obtained PTPP derivative was dispersed in 0.50 mL of water and allowed to stand for 3 days to prepare a saturated aqueous solution. The supernatant of the aqueous solution was collected and diluted with methanol. Thereafter, the absorption spectrum was measured and the solubility in water (Cw) was calculated using the molar absorption coefficient of the PTPP derivative in methanol. In a similar manner to the above, the solubility in dioxane (Co) was also calculated.

Series [2] can be described thus: Partition from aqueous phase to water-immiscible organic solvent (octanol or chloroform). To be noted: octanol or chloroform added to the aqueous solution and stirred; derivative promptly moved to the organic phase. Type of series: physicochemical. On the procedure:
A water-immiscible organic solvent, such as octanol or chloroform, was added to the aqueous solution of the PTPP derivative (Cw=17.3 mM, Co=0.245 mM) and stirred. This caused the PTPP derivative dissolved in the aqueous phase to promptly move to the organic phase.

A short description of series [3]: Solubility in water (Cw), saturated aqueous solution, absorption spectrum. Type of series: physicochemical. As for the experimental part:
as §1

A short description of series [4]: Quantum yield of 1O2 production, near infrared emission at 1,270 nm. The format is physicochemical. The note with it: aqueous PTPP derivative solution (20 μM), laser 558 nm, relative to methylene blue. From the text:
When the photosensitizer “Photofrin” that has been practically used in PDT treatment is used, the quantum yield of ^1O2 is 0.53 (J. Photochem. Photobiol. B, 92 (2008), 59-65). In contrast, when the PTPP derivatives prepared in Examples 2, 3, and 4 were used, the quantum yields of ^1O2 were 0.62, 0.69, and 0.73, respectively. This explains that the water-soluble porphyrins of the present invention have high photoexcitation efficiency and can thus be suitably used for PDT. The quantum yields of the ^1O2 production were determined by directly measuring the near infrared emission near 1,270 nm obtained by deactivation of the produced ^1O2.
Specifically, an aqueous PTPP derivative solution (20 μM) was irradiated with a laser beam of 558 nm to excite the PTPP derivative, and the emission spectrum of the produced ^1O2 was measured. The quantum yield of the ^1O2 production was calculated by comparing the emission intensity at 1,270 nm obtained with respect to the aqueous PTPP derivative solution with the emission intensity at 1,270 nm obtained in the same manner as above with respect to methylene blue (quantum yield: 0.52).

The test system of series [5] is yeast (Saccharomyces cerevisiae). The experiment in a line: Biocompatibility: concentration of PTPP derivative adsorbed on yeast cells (Cad), microscope absorption spectrophotometry. Type of series: cell-based. The note with it: 10 μM of PTPP derivative added to a yeast solution (1.0×10^4 cell/mL); Nd = below the detection limit. As for the experimental part: Subsequently, the biocompatibility of this PTPP derivative was assessed in the following manner. An aqueous solution of this PTPP derivative (0.5 mL, 50 μm) was added to the cell suspension (1.0 mL; ca. 2.5×10^4 cell/mL) of yeast, and then an aqueous solution of agar (1 wt %; 1.0 mL) was added. A portion of the prepared aqueous solution containing the PTPP derivative (10 μm), yeast (Saccharomyces cerevisiae; ca. 1.0×10^4 cell/mL) and agar (0.4 wt %) was placed on a space (1 cm×1 cm) surrounded by a silicone spacer (thickness 50 μm) put on a glass slide, covered with a cover glass. The glass slide was set on the stage of an optical microscope. Thereafter, appropriate bacterial cells were positioned in the center of the field of view, and the Q-band absorption spectrum of the PTPP derivative near 560 nm was measured. Then, the concentration (Cad) of the PTPP derivative adsorbed on the bacterial cells was calculated from absorption spectrophotometry based on the Lambert-Beer law.

For series [6] the following is noted: cited from earlier work.
Setting [7] is: saturated aqueous solution, allowed to stand for 3 days.

Like-named read-outs stand apart in the source and are kept apart here.

Regarding `COCCOCCOCCO[P-]123(OCCOCCOCCOC)n4c5ccc4C(c4ccccc4)=C4C=CC(=[N+]41)C(c1ccccc1)=c1ccc(n12)=C(c1ccccc1)C1=[N+]3C(=C5c2ccccc2)C=C1.Cl` [Example 1], in series [1] (solvent dioxane), the “Solubility Co (solubility in dioxane)” value amounted to 245 µM. Further, in series [2], the “partition to the organic phase” value was “high partition coefficient to the organic phase”. The “Solubility Cw (solubility in water)” value in series [3] (setting [7]) was 17300 µM.
Consider `COCCOCCO[P-]123(OCCOCCOC)n4c5ccc4C(c4ccccc4)=C4C=CC(=[N+]41)C(c1ccccc1)=c1ccc(n12)=C(c1ccccc1)C1=[N+]3C(=C5c2ccccc2)C=C1.Cl` [Example 2], for which, in series [1] (solvent dioxane), the “Solubility Co (solubility in dioxane)” value is 140 µM. Further, the “Solubility Cw (solubility in water)” value in series [3] (setting [7]) amounted to 13900 µM. Also, the “quantum yield of 1O2” value in series [4] is given as 0.62. Moreover, the “Cad (concentration of PTPP derivative adsorbed on bacterial cell)” value (“Cad” below) in series [5] was determined as 17.8 mM.
The like results for `CCOCCOCCO[P-]123(OCCOCCOCC)n4c5ccc4C(c4ccccc4)=C4C=CC(=[N+]41)C(c1ccccc1)=c1ccc(n12)=C(c1ccccc1)C1=[N+]3C(=C5c2ccccc2)C=C1.Cl` [Example 3] were, in that order, 169 µM, 13000 µM, 0.69 and 27.5 mM.
For `CCCCOCCOCCO[P-]123(OCCOCCOCCCC)n4c5ccc4C(c4ccccc4)=C4C=CC(=[N+]41)C(c1ccccc1)=c1ccc(n12)=C(c1ccccc1)C1=[N+]3C(=C5c2ccccc2)C=C1.Cl` [Example 4], in series [1] (solvent dioxane), the “Solubility Co (solubility in dioxane)” value worked out at 293 µM. The “Solubility Cw (solubility in water)” value in series [3] (setting [7]) was found to be 5380 µM. Besides, the “quantum yield of 1O2” value in series [4] worked out at 0.73. For the same compound, the “Cad” value in series [5] is listed as 74.6 mM.
Turning to `CCCCCCOCCOCCO[P-]123(OCCOCCOCCCCCC)n4c5ccc4C(c4ccccc4)=C4C=CC(=[N+]41)C(c1ccccc1)=c1ccc(n12)=C(c1ccccc1)C1=[N+]3C(=C5c2ccccc2)C=C1.Cl` [Example 5], the “Solubility Co (solubility in dioxane)” value in series [1] (solvent dioxane) came out at 244 µM. Further, in series [3] (setting [7]), the “Solubility Cw (solubility in water)” value amounted to 2070 µM. Also, the “Cad” value in series [5] is 146 mM.
In the case of `CCCCCCOCCO[P-]123(OCCOCCCCCC)n4c5ccc4C(c4ccccc4)=C4C=CC(=[N+]41)C(c1ccccc1)=c1ccc(n12)=C(c1ccccc1)C1=[N+]3C(=C5c2ccccc2)C=C1.Cl` [Example 6], the “Solubility Co (solubility in dioxane)” value in series [1] was determined as 242 µM. Moreover, the “Solubility Cw (solubility in water)” value in series [3] was determined as 1110 µM. The “Cad” value in series [5] came out at 142 mM.
For `CCCCCCCCCCCCOCCOCCOCCOCCOCCOCCOCCOCCOCCO[P-]123(OCCOCCOCCOCCOCCOCCOCCOCCOCCOCCCCCCCCCCCC)n4c5ccc4C(c4ccccc4)=C4C=CC(=[N+]41)C(c1ccccc1)=c1ccc(n12)=C(c1ccccc1)C1=[N+]3C(=C5c2ccccc2)C=C1.Cl` [Example 7], in series [1] (solvent dioxane), the “Solubility Co (solubility in dioxane)” value is reported as “≧25 mM”. In series [3] (setting [7]), the “Solubility Cw (solubility in water)” value came to 14460 µM.
Regarding `CCCCCCCCCCCCCCCCCCOCCOCCOCCOCCO[P-]123(OCCOCCOCCOCCOCCCCCCCCCCCCCCCCCC)n4c5ccc4C(c4ccccc4)=C4C=CC(=[N+]41)C(c1ccccc1)=c1ccc(n12)=C(c1ccccc1)C1=[N+]3C(=C5c2ccccc2)C=C1.Cl` [Example 8], the “Solubility Co (solubility in dioxane)” value in series [1] (solvent dioxane) is reported as “≧25 mM”. In series [3] (setting [7]), the “Solubility Cw (solubility in water)” value came to 7960 µM.
In the case of `CN(C)c1ccc2nc3ccc(=[N+](C)C)cc-3sc2c1` [methylene blue], in series [6] (methylene blue reference standard value), the “quantum yield of 1O2” value is 0.52.
Take Photofrin: in series [6] (Photofrin, from J. Photochem. Photobiol. B, 92 (2008), 59-65), the “quantum yield of 1O2” value is 0.53.

Source of the values: patent US8846904B2, “Water-soluble porphyrin and process for production thereof” (University of Miyazaki, priority 2009, dated 2014).
